#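 GI50 is the concentration that inhibits growth by half. TGI marks complete inhibition of growth.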
# Assays:
# Experiment in all cases: DTP human tumour cell line panel, 384-well format
# [1] = test system: 786-0 renal
# [2] = test system: A498 renal
# [3] = test system: A549 NSCLC
# [4] = test system: ACHN renal
# [5] = test system: BT-549 breast
# [6] = test system: CAKI-1 renal
# [7] = test system: CCRF-CEM leukemia
# [8] = test system: COLO 205 colon
# [9] = test system: DU-145 prostate
# [10] = test system: EKVX NSCLC
# [11] = test system: HCT-15 colon
# [12] = test system: HL-60(TB) leukemia
# [13] = test system: HOP-62 NSCLC
# [14] = test system: HOP-92 NSCLC
# [15] = test system: HS 578T breast
# [16] = test system: HT29 colon
# [17] = test system: IGROV1 ovarian
# [18] = test system: K-562 leukemia
# [19] = test system: KM12 colon
# [20] = test system: LOX IMVI melanoma
# [21] = test system: M14 melanoma
# [22] = test system: MALME-3M melanoma
# [23] = test system: MDA-MB-231 breast
# [24] = test system: MDA-MB-435 melanoma
# [25] = test system: MOLT-4 leukemia
# [26] = test system: NCI-H226 lung
# [27] = test system: NCI-H23 lung
# [28] = test system: NCI-H322M lung
# [29] = test system: NCI-H460 NSCLC
# [30] = test system: NCI-H522 lung
# [31] = test system: NCI/ADR-RES ovarian
# [32] = test system: OVCAR-3 ovarian
# [33] = test system: OVCAR-4 ovarian
# [34] = test system: OVCAR-5 ovarian
# [35] = test system: OVCAR-8 ovarian
# [36] = test system: PC-3 prostate
# [37] = test system: RPMI-8226 leukemia
# [38] = test system: RXF 393 renal
# [39] = test system: SF-268 CNS
# [40] = test system: SF-295 CNS
# [41] = test system: SF-539 CNS
# [42] = test system: SK-MEL-28 melanoma
# [43] = test system: SK-OV-3 ovarian
# [44] = test system: SN12C renal
# [45] = test system: SNB-19 CNS
# [46] = test system: SNB-75 CNS
# [47] = test system: SR leukemia
# [48] = test system: SW-620 colon
# [49] = test system: T-47D breast
# [50] = test system: TK-10 renal
# [51] = test system: UACC-257 melanoma
# [52] = test system: UACC-62 melanoma
# [53] = test system: UO-31 renal
smiles,measurement,setting,value
Nc1ncnc2c1ccn2[C@@H]1O[C@H]([C@H](O)c2ccc(Cl)c(F)c2)[C@@H](O)[C@H]1O,GI50,[1],72.9 µM
same,TGI,[1],> 100 µM
same,GI50,[2],85.1 µM
same,TGI,[2],> 100 µM
same,GI50,[3],> 100 µM
same,TGI,[3],> 100 µM
same,GI50,[4],> 100 µM
same,TGI,[4],> 100 µM
same,GI50,[5],> 100 µM
same,TGI,[5],> 100 µM
same,GI50,[6],> 100 µM
same,TGI,[6],> 100 µM
same,GI50,[7],33.9 µM
same,TGI,[7],> 100 µM
same,GI50,[8],> 100 µM
same,TGI,[8],> 100 µM
same,GI50,[9],> 100 µM
same,TGI,[9],> 100 µM
same,GI50,[10],83.9 µM
same,TGI,[10],> 100 µM
same,GI50,[11],> 100 µM
same,TGI,[11],> 100 µM
same,GI50,[12],77.1 µM
same,TGI,[12],> 100 µM
same,GI50,[13],> 100 µM
same,TGI,[13],> 100 µM
same,GI50,[14],> 100 µM
same,TGI,[14],> 100 µM
same,GI50,[15],> 100 µM
same,TGI,[15],> 100 µM
same,GI50,[16],37.4 µM
same,TGI,[16],> 100 µM
same,GI50,[17],28.7 µM
same,TGI,[17],> 100 µM
same,GI50,[18],32.7 µM
same,TGI,[18],> 100 µM
same,GI50,[19],< 0.01 µM
same,TGI,[19],> 100 µM
same,GI50,[20],> 100 µM
same,TGI,[20],> 100 µM
same,GI50,[21],> 100 µM
same,TGI,[21],> 100 µM
same,GI50,[22],40.9 µM
same,TGI,[22],> 100 µM
same,GI50,[23],> 100 µM
same,TGI,[23],> 100 µM
same,GI50,[24],> 100 µM
same,TGI,[24],> 100 µM
same,GI50,[25],< 0.01 µM
same,GI50,[26],> 100 µM
same,TGI,[26],> 100 µM
same,GI50,[27],52.9 µM
same,TGI,[27],> 100 µM
same,GI50,[28],> 100 µM
same,TGI,[28],> 100 µM
same,GI50,[29],< 0.01 µM
same,TGI,[29],> 100 µM
same,GI50,[30],> 100 µM
same,TGI,[30],> 100 µM
same,GI50,[31],> 100 µM
same,TGI,[31],> 100 µM
same,GI50,[32],> 100 µM
same,TGI,[32],> 100 µM
same,GI50,[33],< 0.01 µM
same,TGI,[33],> 100 µM
same,GI50,[34],> 100 µM
same,TGI,[34],> 100 µM
same,GI50,[35],> 100 µM
same,TGI,[35],> 100 µM
same,GI50,[36],97.7 µM
same,TGI,[36],> 100 µM
same,GI50,[37],12.6 µM
same,TGI,[37],> 100 µM
same,GI50,[38],> 100 µM
same,TGI,[38],> 100 µM
same,GI50,[39],> 100 µM
same,TGI,[39],> 100 µM
same,GI50,[40],> 100 µM
same,TGI,[40],> 100 µM
same,GI50,[41],> 100 µM
same,TGI,[41],> 100 µM
same,GI50,[42],> 100 µM
same,TGI,[42],> 100 µM
same,GI50,[43],50.3 µM
same,TGI,[43],> 100 µM
same,GI50,[44],41.6 µM
same,TGI,[44],> 100 µM
same,GI50,[45],> 100 µM
same,TGI,[45],> 100 µM
same,GI50,[46],> 100 µM
same,TGI,[46],> 100 µM
same,GI50,[47],< 0.01 µM
same,TGI,[47],> 100 µM
same,GI50,[48],> 100 µM
same,TGI,[48],> 100 µM
same,GI50,[49],< 0.01 µM
same,TGI,[49],> 100 µM
same,GI50,[50],> 100 µM
same,TGI,[50],> 100 µM
same,GI50,[51],> 100 µM
same,TGI,[51],> 100 µM
same,GI50,[52],> 100 µM
same,TGI,[52],> 100 µM
same,GI50,[53],> 100 µM
same,TGI,[53],> 100 µM

# From PubChem BioAssay (NCI)
